# In US10112937B2, “P2X7 modulators and methods of use” (Janssen Pharmaceutica NV, priority 2013, dated 2018):
# Biological target: human P2X7 (Homo sapiens (Human), UniProt Q99572)
# Assay: P2X7 antagonism in human PBMCs (IL-1β release after LPS + Bz-ATP, ELISA)
# Type: cell-based
# Conditions: human PBMCs, test compound 10 μM
# human P2X7, sequence (Q99572 whole entry): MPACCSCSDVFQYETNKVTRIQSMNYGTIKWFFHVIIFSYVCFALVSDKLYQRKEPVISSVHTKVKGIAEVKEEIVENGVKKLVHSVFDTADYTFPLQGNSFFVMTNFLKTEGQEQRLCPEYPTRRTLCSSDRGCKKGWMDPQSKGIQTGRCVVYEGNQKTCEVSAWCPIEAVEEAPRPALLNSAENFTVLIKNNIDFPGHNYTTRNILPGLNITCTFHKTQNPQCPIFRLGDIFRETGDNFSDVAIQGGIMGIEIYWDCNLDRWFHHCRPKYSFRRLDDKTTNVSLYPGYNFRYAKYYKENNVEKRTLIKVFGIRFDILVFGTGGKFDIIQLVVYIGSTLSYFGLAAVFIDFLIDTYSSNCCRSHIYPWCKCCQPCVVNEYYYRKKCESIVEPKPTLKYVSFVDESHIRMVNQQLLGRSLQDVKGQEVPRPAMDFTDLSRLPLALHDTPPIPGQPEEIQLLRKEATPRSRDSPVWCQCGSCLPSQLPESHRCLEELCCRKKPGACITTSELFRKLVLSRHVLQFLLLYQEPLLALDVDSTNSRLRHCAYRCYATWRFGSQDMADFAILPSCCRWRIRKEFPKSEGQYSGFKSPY
row,SMILES,PBMC 10 μM (% control)
1,"Cc1c(C(=O)N2Cc3nnn(-c4ncc(F)cn4)c3C[C@H]2C)ccnc1C(F)(F)F (single isomer, unassigned) [Example 187, (S*)-(1-(5-fluoropyrimidin-2-yl)-6-methyl-6,7-dihydro-1H-[1,2,3]triazolo[4,5-c]pyridin-5(4H)-yl)(3-methyl-2-(trifluoromethyl)pyridin-4-yl)methanone]",−0.6
2,"Cc1c(C(=O)N2CCc3c(nnn3-c3ncccn3)[C@H]2C)cccc1C(F)(F)F (single isomer, unassigned) [Example 188, (R*)-(4-methyl-1-(pyrimidin-2-yl)-6,7-dihydro-1H-[1,2,3]triazolo[4,5-c]pyridin-5(4H)-yl)(2-methyl-3-(trifluoromethyl)phenyl)methanone]",−0.7
3,"C[C@@H]1c2nnn(-c3ncc(F)cn3)c2CCN1C(=O)c1cccc(C(F)(F)F)c1F (single isomer, unassigned) [Example 190, (R*)-(2-fluoro-3-(trifluoromethyl)phenyl)(1-(5-fluoropyrimidin-2-yl)-4-methyl-6,7-dihydro-1H-[1,2,3]triazolo[4,5-c]pyridin-5(4H)-yl)methanone]",7.1
4,"C[C@H]1c2ncn(-c3ccccn3)c2CCN1C(=O)c1cccc(Cl)c1Cl (single isomer, unassigned) [Example 191, (S*)-(2,3-Dichlorophenyl)(4-methyl-1-(pyridin-2-yl)-6,7-dihydro-1H-imidazo[4,5-c]pyridin-5(4H)-yl)methanone]",5.2
5,"C[C@@H]1c2ncn(-c3ccccn3)c2CCN1C(=O)c1cccc(Cl)c1Cl (single isomer, unassigned) [Example 192, (R*)-(2,3-Dichlorophenyl)(4-methyl-1-(pyridin-2-yl)-6,7-dihydro-1H-imidazo[4,5-c]pyridin-5(4H)-yl)methanone]",−6.3
6,"C[C@@H]1c2ncn(-c3ncc(F)cn3)c2CCN1C(=O)c1cccc(C(F)(F)F)c1Cl (single isomer, unassigned) [Example 193, (R*)-(2-Chloro-3-(trifluoromethyl)phenyl)(1-(5-fluoropyrimidin-2-yl)-4-methyl-6,7-dihydro-1H-imidazo[4,5-c]pyridin-5(4H)-yl)methanone]",1.4
7,"C[C@H]1Cc2c(nnn2-c2cc(F)ccn2)CN1C(=O)c1cccc(Cl)c1Cl (single isomer, unassigned) [Example 196, (6S*)-5-[(2,3-Dichlorophenyl)carbonyl]-1-(4-fluoropyridin-2-yl)-6-methyl-4,5,6,7-tetrahydro-1H-[1,2,3]triazolo[4,5-c]pyridine]",−3.1
8,"Cc1c(C(=O)N2CCc3c(nnn3-c3ncccn3)[C@@H]2C)cccc1C(F)(F)F (single isomer, unassigned) [Example 197, (S*)-(4-methyl-1-(pyrimidin-2-yl)-6,7-dihydro-1H-[1,2,3]triazolo[4,5-c]pyridin-5(4H)-yl)(2-methyl-3-(trifluoromethyl)phenyl)methanone]",2.1
9,"C[C@@H]1Cc2c(nnn2-c2cc(F)ccn2)CN1C(=O)c1cccc(C(F)(F)F)c1Cl (single isomer, unassigned) [Example 198, (6R*)-5-{[2-Chloro-3-(trifluoromethyl)phenyl]carbonyl}-1-(4-fluoropyridin-2-yl)-6-methyl-4,5,6,7-tetrahydro-1H-[1,2,3]triazolo[4,5-c]pyridine]",1.3
10,"C[C@H]1Cc2c(nnn2-c2cc(F)ccn2)CN1C(=O)c1cccc(C(F)(F)F)c1Cl (single isomer, unassigned) [Example 199, (6S*)-5-{[2-Chloro-3-(trifluoromethyl)phenyl]carbonyl}-1-(4-fluoropyridin-2-yl)-6-methyl-4,5,6,7-tetrahydro-1H-[1,2,3]triazolo[4,5-c]pyridine]",0.0
11,"Cc1c(C(=O)N2Cc3nnn(-c4ncc(F)cn4)c3C[C@H]2C)cccc1C(F)(F)F (single isomer, unassigned) [Example 207, (6R*)-1-(5-Fluoropyrimidin-2-yl)-6-methyl-5-{[2-methyl-3-(trifluoromethyl)phenyl]carbonyl}-4,5,6,7-tetrahydro-1H-[1,2,3]triazolo[4,5-c]pyridine]",45.0
12,"C[C@@H]1Cc2c(nnn2-c2ncc(F)cn2)CN1C(=O)c1ccc(F)c(Cl)c1Cl (single isomer, unassigned) [Example 214, (6R*)-5-[(2,3-Dichloro-4-fluorophenyl)carbonyl]-1-(5-fluoropyrimidin-2-yl)-6-methyl-4,5,6,7-tetrahydro-1H-[1,2,3]triazolo[4,5-c]pyridine]",8.2
13,"C[C@H]1Cc2c(nnn2-c2ncc(F)cn2)CN1C(=O)c1ccc(F)c(Cl)c1Cl (single isomer, unassigned) [Example 215, (6S*)-5-[(2,3-Dichloro-4-fluorophenyl)carbonyl]-1-(5-fluoropyrimidin-2-yl)-6-methyl-4,5,6,7-tetrahydro-1H-[1,2,3]triazolo[4,5-c]pyridine]",2.7
14,"C[C@H]1Cc2c(nnn2-c2ncc(F)cn2)CN1C(=O)c1ccc(Cl)c(F)c1Cl (single isomer, unassigned) [Example 218, (6S*)-5-[(2,4-Dichloro-3-fluorophenyl)carbonyl]-1-(5-fluoropyrimidin-2-yl)-6-methyl-4,5,6,7-tetrahydro-1H-[1,2,3]triazolo[4,5-c]pyridine]",6.1
15,"C[C@@H]1c2n[nH]c(-c3ncc(F)cn3)c2CCN1C(=O)c1cccc(C(F)(F)F)c1Cl (single isomer, unassigned) [Example 223, (R*)-(2-chloro-3-(trifluoromethyl)phenyl)(3-(5-fluoropyrimidin-2-yl)-7-methyl-4,5-dihydro-2H-pyrazolo[3,4-c]pyridin-6(7H)-yl)methanone]",1.8
16,"Cc1cccc(-n2nnc3c2CCN(C(=O)c2cccc(C(F)(F)F)c2Cl)[C@@H]3C)n1 (single isomer, unassigned) [Example 226, (R*)-(2-chloro-3-(trifluoromethyl)phenyl)(4-methyl-1-(6-methylpyridin-2-yl)-6,7-dihydro-1H-[1,2,3]triazolo[4,5-c]pyridin-5(4H)-yl)methanone]",58.0
17,"Cc1cccc(-n2nnc3c2CCN(C(=O)c2cccc(C(F)(F)F)c2Cl)[C@H]3C)n1 (single isomer, unassigned) [Example 227, (S*)-(2-chloro-3-(trifluoromethyl)phenyl)(4-methyl-1-(6-methylpyridin-2-yl)-6,7-dihydro-1H-[1,2,3]triazolo[4,5-c]pyridin-5(4H)-yl)methanone]",−0.4
18,"C[C@H]1Cc2c(nnn2-c2ncc(F)cn2)CN1C(=O)c1cc(C(F)(F)F)ccc1F (single isomer, unassigned) [Example 232, (S*)-(2-fluoro-5-(trifluoromethyl)phenyl)(1-(5-fluoropyrimidin-2-yl)-6-methyl-6,7-dihydro-1H-[1,2,3]triazolo[4,5-c]pyridin-5(4H)-yl)methanone]",7.5
19,"COCCn1ccc(-n2nnc3c2CCN(C(=O)c2cccc(C(F)(F)F)c2Cl)[C@H]3C)n1 (single isomer, unassigned) [Example 249, (S*)-(2-Chloro-3-(trifluoromethyl)phenyl)(1-(1-(2-methoxyethyl)-1H-pyrazol-3-yl)-4-methyl-6,7-dihydro-1H-[1,2,3]triazolo[4,5-c]pyridin-5(4H)-yl)methanone]",5.1
20,"Cc1ccc(-n2nnc3c2CCN(C(=O)c2cccc(C(F)(F)F)c2Cl)[C@@H]3C)nc1 (single isomer, unassigned) [Example 255, (R*)-(2-chloro-3-(trifluoromethyl)phenyl)(4-methyl-1-(5-methylpyridin-2-yl)-6,7-dihydro-1H-[1,2,3]triazolo[4,5-c]pyridin-5(4H)-yl)methanone]",−5.5
21,"C[C@H]1c2nnn(-c3ncccn3)c2CCN1C(=O)c1cccc(C(F)(F)F)c1F (single isomer, unassigned) [Example 270, (S*)-(2-fluoro-3-(trifluoromethyl)phenyl)(4-methyl-1-(pyrimidin-2-yl)-6,7-dihydro-1H-[1,2,3]triazolo[4,5-c]pyridin-5(4H)-yl)methanone]",47.9
22,"Cc1cccnc1-n1nnc2c1CCN(C(=O)c1cccc(C(F)(F)F)c1Cl)[C@@H]2C (single isomer, unassigned) [Example 291, (R*)-(2-chloro-3-(trifluoromethyl)phenyl)(4-methyl-1-(3-methylpyridin-2-yl)-6,7-dihydro-1H-[1,2,3]triazolo[4,5-c]pyridin-5(4H)-yl)methanone]",−7.1
23,"CCc1ccnc(-n2nnc3c2CCN(C(=O)c2cccc(C(F)(F)F)c2Cl)[C@@H]3C)n1 (single isomer, unassigned) [Example 294, (R*)-(2-chloro-3-(trifluoromethyl)phenyl)(1-(4-ethylpyrimidin-2-yl)-4-methyl-6,7-dihydro-1H-[1,2,3]triazolo[4,5-c]pyridin-5(4H)-yl)methanone]",−8.1
24,"Cc1nc(-n2nnc3c2CCN(C(=O)c2cccc(C(F)(F)F)c2Cl)[C@@H]3C)ncc1F (single isomer, unassigned) [Example 305, (R*)-(2-chloro-3-(trifluoromethyl)phenyl)(1-(5-fluoro-4-methylpyrimidin-2-yl)-4-methyl-6,7-dihydro-1H-[1,2,3]triazolo[4,5-c]pyridin-5(4H)-yl)methanone]",0.9

# Same assay, conditions: test compound 10 μM, LPS 30 ng/ml + 0.5 mM Bz-ATP
row,SMILES,PBMC 10 μM (% control)
1,"Cc1c(C(=O)N2Cc3nnn(-c4ncc(F)cn4)c3C[C@H]2C)ccnc1C(F)(F)F (single isomer, unassigned) [Example 187, (S*)-(1-(5-fluoropyrimidin-2-yl)-6-methyl-6,7-dihydro-1H-[1,2,3]triazolo[4,5-c]pyridin-5(4H)-yl)(3-methyl-2-(trifluoromethyl)pyridin-4-yl)methanone]",−0.6
2,"Cc1c(C(=O)N2CCc3c(nnn3-c3ncccn3)[C@H]2C)cccc1C(F)(F)F (single isomer, unassigned) [Example 188, (R*)-(4-methyl-1-(pyrimidin-2-yl)-6,7-dihydro-1H-[1,2,3]triazolo[4,5-c]pyridin-5(4H)-yl)(2-methyl-3-(trifluoromethyl)phenyl)methanone]",−0.7
3,"C[C@@H]1c2ncn(-c3ccccn3)c2CCN1C(=O)c1cccc(Cl)c1Cl (single isomer, unassigned) [Example 192, (R*)-(2,3-Dichlorophenyl)(4-methyl-1-(pyridin-2-yl)-6,7-dihydro-1H-imidazo[4,5-c]pyridin-5(4H)-yl)methanone]",−6.3
4,"C[C@@H]1c2ncn(-c3ncc(F)cn3)c2CCN1C(=O)c1cccc(C(F)(F)F)c1Cl (single isomer, unassigned) [Example 193, (R*)-(2-Chloro-3-(trifluoromethyl)phenyl)(1-(5-fluoropyrimidin-2-yl)-4-methyl-6,7-dihydro-1H-imidazo[4,5-c]pyridin-5(4H)-yl)methanone]",1.4
